Experimental data: patent publication US10780090B2, “Heteroaryl compounds useful as inhibitors of SUMO activating enzyme” (Millennium Pharmaceuticals, Inc., priority 2014, dated 2020)
Counter-ions that a name gives are not always drawn.

Target: recombinant human SAE enzyme (Homo sapiens (Human), UniProt Q9UBT2)
Assay: SAE HTRF enzyme assay
Assay type: biochemical
Conditions: for inhibition at 0.111 µM: read-out: Percent Inhibition
Summary of the method: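 0.11 nM SAE incubated with 0.5 μM ATP, 0.01 μM Ubc9-GST and 0.125 μM Sumo-Flag in HEPES pH 7.5, MgCl2, GSH, BSA, ±inhibitor, 105 min at 24° C. EDTA stop; Eu-cryptate anti-Flag/XL-APC anti-GST HTRF read after 2 h. Values given as single-concentration % inhibition or IC50.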

[1] = SAE inhibition at compound concentration 0.111 μM
[2] = SAE inhibition, class symbols, legend in nM

recombinant human SAE enzyme, sequence (Q9UBT2 whole entry): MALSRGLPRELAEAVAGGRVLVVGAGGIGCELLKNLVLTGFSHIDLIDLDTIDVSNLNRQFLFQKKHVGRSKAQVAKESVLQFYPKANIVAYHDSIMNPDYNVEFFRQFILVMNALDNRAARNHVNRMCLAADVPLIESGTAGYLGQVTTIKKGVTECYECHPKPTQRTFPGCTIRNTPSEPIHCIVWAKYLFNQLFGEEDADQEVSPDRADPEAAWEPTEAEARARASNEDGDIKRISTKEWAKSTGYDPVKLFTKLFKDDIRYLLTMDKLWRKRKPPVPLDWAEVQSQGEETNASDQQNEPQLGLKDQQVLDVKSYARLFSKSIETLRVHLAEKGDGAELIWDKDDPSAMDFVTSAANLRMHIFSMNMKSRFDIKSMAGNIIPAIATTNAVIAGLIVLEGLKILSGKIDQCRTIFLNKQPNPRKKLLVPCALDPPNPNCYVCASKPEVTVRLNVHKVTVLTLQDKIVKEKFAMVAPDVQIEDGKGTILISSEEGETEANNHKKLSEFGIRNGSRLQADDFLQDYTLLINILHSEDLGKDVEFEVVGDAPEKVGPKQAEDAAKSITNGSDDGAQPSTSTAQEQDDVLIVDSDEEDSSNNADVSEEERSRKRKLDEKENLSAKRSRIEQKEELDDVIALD
recombinant human SAE enzyme, sequence (Q9UBE0 whole entry partner): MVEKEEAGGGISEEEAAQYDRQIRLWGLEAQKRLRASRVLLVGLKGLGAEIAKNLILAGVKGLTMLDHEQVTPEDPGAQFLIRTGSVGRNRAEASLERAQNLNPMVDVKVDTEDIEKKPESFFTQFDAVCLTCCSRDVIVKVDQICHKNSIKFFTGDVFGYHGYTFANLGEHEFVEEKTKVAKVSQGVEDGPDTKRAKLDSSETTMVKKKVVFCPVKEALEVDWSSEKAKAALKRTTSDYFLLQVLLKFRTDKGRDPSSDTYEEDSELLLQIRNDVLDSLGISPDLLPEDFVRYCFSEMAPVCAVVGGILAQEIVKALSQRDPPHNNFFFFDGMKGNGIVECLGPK

SMILES | Percent Inhibition (Concentration 0.111 μM) | IC50 (class symbols A/B/C) [nM] | Percent Inhibition [1] [%] | IC50 [2] [nM] | inhibition at 0.111 µM (Concentration 0.111 μM) [%]
CN1CCC[C@]1(c1cccc(Cl)c1)c1csc(C(=O)c2cncnc2N[C@@H]2C[C@H](COS(N)(=O)=O)[C@@H](O)C2)c1 (mixture of isomers) [I-227, [(1R,2S,4R)-4-{[5-({4-[(2S)-2-(3-chlorophenyl)-1-methylpyrrolidin-2-yl]-2-thienyl}carbonyl)pyrimidin-4-yl]amino}-2-hydroxycyclopentyl]methyl sulfamate and [(1R,2S,4R)-4-{[5-({4-[(2R)-2-(3-chlorophenyl)-1-methylpyrrolidin-2-yl]-2-thienyl}carbonyl)pyrimidin-4-yl]amino}-2-hydroxycyclopentyl]methyl sulfamate] | 23 | 100 to 1000 | – | – | –
Cc1ccn(Cc2csc(C(=O)c3cncnc3N[C@@H]3C[C@H](COS(N)(=O)=O)[C@@H](O)C3)c2)c1 [I-170, [(1R,2S,4R)-2-Hydroxy-4-({[5-({4-[(3-methyl-1H-pyrrol-1-yl)methyl]-2-thienyl}carbonyl)pyrimidin-4-yl]amino}cyclopentyl]methyl sulfamate] | 91 | 10 to 100 | – | – | –
CC(C)(C)OC(=O)N1CCc2ccc(Cl)cc2[C@@H]1c1csc(C(=O)c2cncnc2N[C@@H]2C[C@H](COS(N)(=O)=O)[C@@H](O)C2)c1.CC(C)(C)OC(=O)N1CCc2ccc(Cl)cc2[C@H]1c1csc(C(=O)c2cncnc2N[C@@H]2C[C@H](COS(N)(=O)=O)[C@@H](O)C2)c1 (mixture of isomers) [I-334, tert-butyl (1R)-7-chloro-1-(5-{[4-({(1R,3S,4R)-3-hydroxy-4-[(sulfamoyloxy)methyl]cyclopentyl}amino)pyrimidin-5-yl]carbonyl}-3-thienyl)-3,4-dihydroisoquinoline-2(1H)-carboxylate and tert-butyl (1S)-7-chloro-1-(5-{[4-({(1R,3S,4R)-3-hydroxy-4-[(sulfamoyloxy)methyl]cyclopentyl}amino)pyrimidin-5-yl]carbonyl}-3-thienyl)-3,4-dihydroisoquinoline-2(1H)-carboxylate] | – | – | 10 | 100 to 1000 | –
Cc1cc2n(n1)CCO[C@H]2c1csc(C(=O)c2cncnc2N[C@@H]2C[C@H](COS(N)(=O)=O)[C@@H](O)C2)c1 (mixture of isomers) [I-332, [(1R,2S,4R)-2-hydroxy-4-{[5-({4-[(4S)-2-methyl-6,7-dihydro-4H-pyrazolo[5,1-c][1,4]oxazin-4-yl]-2-thienyl}carbonyl)pyrimidin-4-yl]amino}cyclopentyl]methyl sulfamate and [(1R,2S,4R)-2-hydroxy-4-{[5-({4-[(4R)-2-methyl-6,7-dihydro-4H-pyrazolo[5,1-c][1,4]oxazin-4-yl]-2-thienyl}carbonyl)pyrimidin-4-yl]amino}cyclopentyl]methyl sulfamate] | – | – | 25 | 100 to 1000 | –
NS(=O)(=O)OC[C@H]1C[C@@H](Nc2ncncc2C(=O)c2cc(CN3CCc4ccccc4C3)cs2)C[C@@H]1O [I-167, {(1R,2S,4R)-4-[(5-{[4-(3,4-dihydroisoquinolin-2(1H)-ylmethyl)-2-thienyl]carbonyl}pyrimidin-4-yl)amino]-2-hydroxycyclopentyl}methyl sulfamate] | – | 10 to 100 | – | – | 89
NS(=O)(=O)OC[C@H]1C[C@@H](Nc2ncncc2C(=O)c2cc(Cc3cccc(F)c3)cs2)C[C@@H]1O [I-97, {(1R,2S,4R)-4-[(5-{[4-(3-fluorobenzyl)-2-thienyl]carbonyl}pyrimidin-4-yl)amino]-2-hydroxycyclopentyl}methyl sulfamate] | – | – | – | – | 97
Cc1sc(C(=O)c2cncnc2N[C@@H]2C[C@H](COS(N)(=O)=O)[C@@H](OC(=O)[C@H](C)N)C2)cc1[C@@H]1OCCc2ccc(Cl)cc21 [I-362, [(1S,2R,4R)-4-[5-[4-[(1R)-7-chloroisochroman-1-yl]-5-methyl-thiophene-2-carbonyl]pyrimidin-4-yl]amino]-2-(sulfamoyloxymethyl)cyclopentyl] (2S)-2-aminopropanoate; hydrochloride] | – | – | 91 | 10 to 100 | –
NS(=O)(=O)OCC1CC(Nc2ncncc2C(=O)c2cc(C3(c4cccc(Cl)c4)CCCCO3)cs2)CC1O (mixture of isomers) [I-154, [(1R,2S,4R)-4-{[5-({4-[(2R)-2-(3-chlorophenyl)tetrahydro-2H-pyran-2-yl]-2-thienyl}carbonyl)pyrimidin-4-yl]amino}-2-hydroxycyclopentyl]methyl sulfamate and [(1R,2S,4R)-4-{[5-({4-[(2S)-2-(3-chlorophenyl)tetrahydro-2H-pyran-2-yl]-2-thienyl}carbonyl)pyrimidin-4-yl]amino}-2-hydroxycyclopentyl]methyl sulfamate] | 95 | < 10 | – | – | –
NS(=O)(=O)OC[C@H]1C[C@@H](Nc2ncncc2C(=O)c2cc([C@@H]3CCc4ccc(Cl)cc43)cs2)C[C@@H]1O (mixture of isomers) [I-349, [(1R,2S,4R)-4-{[5-({4-[(1R)-6-chloro-2,3-dihydro-1H-inden-1-yl]-2-thienyl}carbonyl)pyrimidin-4-yl]amino}-2-hydroxycyclopentyl]methyl sulfamate and [(1R,2S,4R)-4-{[5-({4-[(1S)-6-chloro-2,3-dihydro-1H-inden-1-yl]-2-thienyl}carbonyl)pyrimidin-4-yl]amino}-2-hydroxycyclopentyl]methyl sulfamate] | – | – | 42 | 100 to 1000 | –
NS(=O)(=O)OC[C@H]1C[C@@H](Nc2ncncc2C(=O)c2cc([C@@H]3CCCc4ccc(Cl)cc43)cs2)C[C@@H]1O (single isomer, unassigned) [I-335b, [(1R,2S,4R)-4-{[5-({4-[(1R)-7-chloro-1,2,3,4-tetrahydronaphthalen-1-yl]-2-thienyl}carbonyl)pyrimidin-4-yl]amino}-2-hydroxycyclopentyl]methyl sulfamate or [(1R,2S,4R)-4-{[5-({4-[(1S)-7-chloro-1,2,3,4-tetrahydronaphthalen-1-yl]-2-thienyl}carbonyl)pyrimidin-4-yl]amino}-2-hydroxycyclopentyl]methyl sulfamate] | – | – | 41 | 100 to 1000 | –
NS(=O)(=O)OC[C@H]1C[C@@H](Nc2ncncc2C(=O)c2cc([C@@H]3OCC(F)(F)c4ccccc43)cs2)C[C@@H]1O (mixture of isomers) [I-293, [(1R,2S,4R)-4-{[5-({4-[(1R)-4,4-difluoro-3,4-dihydro-1H-isochromen-1-yl]-2-thienyl}carbonyl)pyrimidin-4-yl]amino}-2-hydroxycyclopentyl]methyl sulfamate and [(1R,2S,4R)-4-{[5-({4-[(1S)-4,4-difluoro-3,4-dihydro-1H-isochromen-1-yl]-2-thienyl}carbonyl)pyrimidin-4-yl]amino}-2-hydroxycyclopentyl]methyl sulfamate] | – | – | 98 | < 10 | –
Cc1sc(C(=O)c2cncnc2N[C@@H]2C[C@H](COS(N)(=O)=O)[C@@H](O)C2)cc1[C@H](N)c1cccc(Cl)c1 (single isomer, unassigned) [I-6a, [(1R,2S,4R)-4-{[5-({4-[(R)-amino(3-chlorophenyl)methyl]-5-methyl-2-thienyl}carbonyl)pyrimidin-4-yl]amino}-2-hydroxycyclopentyl]methyl sulfamate or [(1R,2S,4R)-4-{[5-({4-[(S)-amino(3-chlorophenyl)methyl]-5-methyl-2-thienyl}carbonyl)pyrimidin-4-yl]amino}-2-hydroxycyclopentyl]methyl sulfamate] | 98 | < 10 | – | – | –
Cc1sc(C(=O)c2cncnc2N[C@@H]2C[C@H](COS(N)(=O)=O)[C@@H](O)C2)nc1[C@H](O)c1cccc(Cl)c1 (single isomer, unassigned) [I-355a, [(1R,2S,4R)-4-{[5-({4-[(R)-(3-chlorophenyl)(hydroxy)methyl]-5-methyl-1,3-thiazol-2-yl}carbonyl)pyrimidin-4-yl]amino}-2-hydroxycyclopentyl]methyl sulfamate or [(1R,2S,4R)-4-{[5-({4-[(S)-(3-chlorophenyl)(hydroxy)methyl]-5-methyl-1,3-thiazol-2-yl}carbonyl)pyrimidin-4-yl]amino}-2-hydroxycyclopentyl]methyl sulfamate] | – | – | 98 | < 10 | –
CO[C@@H](c1cccc(Br)c1)c1csc(C(=O)c2cncnc2N[C@@H]2C[C@H](COS(N)(=O)=O)[C@@H](O)C2)c1 (single isomer, unassigned) [I-73b, [(1R,2S,4R)-4-{[5-({4-[(S)-(3-Bromophenyl)(methoxy)methyl-2-thienyl}carbonyl)pyrimidin-4-yl]amino}-2-hydroxycyclopentyl]methyl sulfamate or [(1R,2S,4R)-4-{[5-(4-[(R)-(3-Bromophenyl)(methoxy)methyl]-2-thienyl)carbonyl)pyrimidin-4-yl]amino}-2-hydroxycyclopentyl]methyl sulfamate] | 98 | < 10 | – | – | –
NS(=O)(=O)OC[C@H]1C[C@@H](Nc2ncncc2C(=O)c2cc([C@@]3(C4CC4)CCCO3)cs2)C[C@@H]1O (mixture of isomers) [I-238, [(1R,2S,4R)-4-{[5-({4-[(2S)-2-cyclopropyltetrahydrofuran-2-yl]-2-thienyl}carbonyl)pyrimidin-4-yl]amino}-2-hydroxycyclopentyl]methyl sulfamate and [(1R,2S,4R)-4-{[5-({4-[(2R)-2-cyclopropyltetrahydrofuran-2-yl]-2-thienyl}carbonyl)pyrimidin-4-yl]amino}-2-hydroxycyclopentyl]methyl sulfamate] | 25 | 100 to 1000 | – | – | –
